The source of these data is the NIST ThermoML archive (doi:10.1021/je200628n).

Structures are written as SMILES. Numbers after ± are expanded uncertainties.

The data set is described as follows: activity coefficient (dimensionless); of the first substance listed, at infinite dilution; xn = mol fraction of the nth substance listed. To be noted: 101 kPa, Liquid, Chromatography, x1 = 0.

In the case of `CCCCOC(C)=O` [butyl ethanoate] + NCCCCCCCCCCCCN, the activity coefficient runs as follows: (348.25 K) 1.69 ± 0.084; (353.15 K) 1.57 ± 0.077; (358.25 K) 1.46 ± 0.07; (363.21 K) 1.36 ± 0.065.
Consider `CCCCCCCl` [1-chlorohexane] + NCCCCCCCCCCN, for which the activity coefficient came out at 3.46 ± 0.18 (338.2 K), 2.81 ± 0.14 (348.15 K) and 2.54 ± 0.13 (353.22 K).
The like results for `CCc1ccccc1` [ethylbenzene] + NCCCCCCCCCCN were, in that order, 1.97 ± 0.1, 1.78 ± 0.089 and 1.72 ± 0.085.
For the compound `CCc1ccccc1` [ethylbenzene] + NCCCCCCCCN, the activity coefficient runs as follows: (328.15 K) 2.07 ± 0.11; (338.15 K) 1.86 ± 0.094; (343.15 K) 1.77 ± 0.089; (348.15 K) 1.72 ± 0.085.
With `CCCCCCC` [heptane] + NCCCCCCCCCCCCN, the activity coefficient (348.25 K) was determined as 5.21 ± 0.27, the activity coefficient (353.15 K) was found to be 5.13 ± 0.26, the activity coefficient (358.25 K) stood at 5.04 ± 0.26 and the activity coefficient (363.21 K) came out at 4.97 ± 0.26.
In the case of `c1ccccc1` [benzene] + NCCCCCCCCCCCCN, the activity coefficient runs as follows: (348.25 K) 2.08 ± 0.11; (353.15 K) 2.07 ± 0.11; (358.25 K) 2.06 ± 0.1; (363.21 K) 2.04 ± 0.1.
For `CCCO` [propan-1-ol] + NCCCCCCCCCCCCN, in that order: 0.931 ± 0.042, 0.975 ± 0.043, 1.04 ± 0.046 and 1.09 ± 0.049.
As for `ClCCl` [dichloromethane] + NCCCCCCCCN, the activity coefficient is, setting by setting: (328.15 K) 0.657 ± 0.034; (338.15 K) 0.552 ± 0.032; (343.15 K) 0.53 ± 0.031; (348.15 K) 0.513 ± 0.031.
In the case of `CCCCCCl` [1-chloropentane] + NCCCCCCCCCCN, the activity coefficient reads like this: (338.2 K) 2.94 ± 0.15; (348.15 K) 2.43 ± 0.12; (353.22 K) 2.23 ± 0.12.
With `CCOC(C)=O` [ethyl acetate] + NCCCCCCCCCCCCN, the activity coefficient is, setting by setting: (348.25 K) 1.36 ± 0.064; (353.15 K) 1.29 ± 0.06; (358.25 K) 1.22 ± 0.056; (363.21 K) 1.15 ± 0.052.
For `CCOC(C)=O` [ethyl acetate] + NCCCCCCCCN, the activity coefficient by setting is: (328.15 K) 1.08 ± 0.048; (338.15 K) 0.954 ± 0.042; (343.15 K) 0.902 ± 0.041; (348.15 K) 0.855 ± 0.039.
As for `CCCCC` [pentane] + NCCCCCCCCN, the activity coefficient (328.21 K) is 1.37 ± 0.065, the activity coefficient (338.23 K) amounted to 1.27 ± 0.059, the activity coefficient (343.19 K) stood at 1.22 ± 0.056 and the activity coefficient (348.25 K) worked out at 1.16 ± 0.053.
As to `CCOCC` [diethyl ether] + NCCCCCCCCCCN, the activity coefficient by setting is: (338.2 K) 3.84 ± 0.2; (348.15 K) 3.69 ± 0.19; (353.22 K) 3.64 ± 0.19.
For `C=CCCCCCC` [oct-1-ene] + NCCCCCCCCCCN, the activity coefficient turned out to be 4.09 ± 0.21 (338.2 K), 3.65 ± 0.19 (348.15 K) and 3.45 ± 0.18 (353.22 K).
Turning to `ClC(Cl)(Cl)Cl` [tetrachloromethane] + NCCCCCCCCN, the activity coefficient (328.15 K) is 2.06 ± 0.11, the activity coefficient (338.15 K) is 1.66 ± 0.082, the activity coefficient (343.15 K) is 1.51 ± 0.073 and the activity coefficient (348.15 K) came out at 1.37 ± 0.065.
Consider `CCCOC(C)=O` [propyl ethanoate] + NCCCCCCCCCCCCN, for which the activity coefficient amounted to 1.55 ± 0.076 (348.25 K), 1.45 ± 0.07 (353.15 K), 1.35 ± 0.064 (358.25 K) and 1.26 ± 0.058 (363.21 K).
The like results for `ClCCl` [dichloromethane] + NCCCCCCCCCCCCN were, in that order, 1.33 ± 0.062, 1.23 ± 0.057, 1.12 ± 0.05 and 1.05 ± 0.046.
In the case of `C=CCCCC` [hex-1-ene] + NCCCCCCCCN, the activity coefficient turned out to be 3.18 ± 0.16 (328.15 K), 2.94 ± 0.15 (338.15 K), 2.85 ± 0.15 (343.15 K) and 2.77 ± 0.14 (348.15 K).
`CCCCCC` [hexane] + NCCCCCCCCCCN: the activity coefficient is, setting by setting: (338.2 K) 4.96 ± 0.26; (348.15 K) 4.55 ± 0.23; (353.22 K) 4.41 ± 0.23.
For the compound `Cc1ccccc1` [toluene] + NCCCCCCCCN, the activity coefficient (328.15 K) was found to be 2.39 ± 0.12, the activity coefficient (338.15 K) was found to be 2.17 ± 0.11, the activity coefficient (343.15 K) was 2.11 ± 0.11 and the activity coefficient (348.15 K) is 2.07 ± 0.11.
`CCCCCCCCCC` [decane] + NCCCCCCCCCCN: the activity coefficient came out at 5.59 ± 0.29 (338.2 K), 5.03 ± 0.26 (348.15 K) and 4.78 ± 0.25 (353.22 K).
The like results for `CCCO` [propan-1-ol] + NCCCCCCCCCCN were, in that order, 0.622 ± 0.033, 0.731 ± 0.036 and 0.772 ± 0.037.
As for `C=CCCCCC` [1-heptene] + NCCCCCCCCCCN, the activity coefficient by setting is: (338.2 K) 3.43 ± 0.18; (348.15 K) 3.1 ± 0.16; (353.22 K) 2.97 ± 0.15.
Consider `ClCCl` [dichloromethane] + NCCCCCCCCCCN, for which the activity coefficient was found to be 1.19 ± 0.054 (338.2 K), 1.09 ± 0.049 (348.15 K) and 0.985 ± 0.043 (353.22 K).
As for `C=CCCCCCC` [oct-1-ene] + NCCCCCCCCCCCCN, the activity coefficient (348.25 K) was found to be 4.83 ± 0.25, the activity coefficient (353.15 K) was 4.53 ± 0.23, the activity coefficient (358.25 K) was 4.33 ± 0.22 and the activity coefficient (363.21 K) worked out at 4.11 ± 0.21.
With `Cc1ccccc1` [toluene] + NCCCCCCCCCCN, the activity coefficient is 2.52 ± 0.13 (338.2 K), 2.23 ± 0.12 (348.15 K) and 2.13 ± 0.11 (353.22 K).
As for `C=CCCCCC` [1-heptene] + NCCCCCCCCCCCCN, the activity coefficient is, setting by setting: (348.25 K) 4.43 ± 0.23; (353.15 K) 4.22 ± 0.22; (358.25 K) 4.08 ± 0.21; (363.21 K) 3.88 ± 0.2.
Consider `CCCOC(C)=O` [propyl ethanoate] + NCCCCCCCCN, for which the activity coefficient reads like this: (328.15 K) 1.29 ± 0.06; (338.15 K) 1.08 ± 0.048; (343.15 K) 0.997 ± 0.044; (348.15 K) 0.929 ± 0.042.
With `C=CCCC` [1-pentene] + NCCCCCCCCCCCCN, the activity coefficient (348.25 K) was 4.21 ± 0.22, the activity coefficient (353.15 K) turned out to be 4.04 ± 0.21, the activity coefficient (358.25 K) was 3.89 ± 0.2 and the activity coefficient (363.21 K) was determined as 3.75 ± 0.19.
For `Cc1ccccc1` [toluene] + NCCCCCCCCCCCCN, in that order: 2.6 ± 0.13, 2.51 ± 0.13, 2.42 ± 0.12 and 2.33 ± 0.12.
Turning to `C=CCCCCC` [1-heptene] + NCCCCCCCCN, the activity coefficient (328.15 K) stood at 3.59 ± 0.18, the activity coefficient (338.15 K) was 3.21 ± 0.17, the activity coefficient (343.15 K) amounted to 3.03 ± 0.15 and the activity coefficient (348.15 K) amounted to 2.93 ± 0.15.
For `CCCCCCCC` [octane] + NCCCCCCCCCCN, the activity coefficient (338.2 K) came out at 5.24 ± 0.27, the activity coefficient (348.15 K) was 4.79 ± 0.25 and the activity coefficient (353.22 K) came to 4.55 ± 0.23.
The like results for `ClC(Cl)(Cl)Cl` [tetrachloromethane] + NCCCCCCCCCCN were, in that order, 2.25 ± 0.12, 2.05 ± 0.1 and 1.98 ± 0.1.
Regarding `C=CCCCCCCCC` [1-decene] + NCCCCCCCCCCCCN, the activity coefficient (348.25 K) was found to be 5.05 ± 0.26, the activity coefficient (353.15 K) was found to be 4.8 ± 0.25, the activity coefficient (358.25 K) worked out at 4.47 ± 0.23 and the activity coefficient (363.21 K) was 4.24 ± 0.22.
